Source: patent US7122570B2, “Tetrahydrocarbazol derivatives as ligands for G-protein-coupled receptors (GPCR)” (Zentaris AG, priority 2001, dated 2006)

Experiments:
GnRH receptor [1] = molecular target: T1, GnRH receptor (Homo sapiens, UniProt P30968); experiment: Receptor binding assay with 125I-triptorelin on transfected LTK cells; conditions: competition with 125I-triptorelin, whole LTK cells, 60 minutes at 37° C.
T1 sequence (P30968 1-328): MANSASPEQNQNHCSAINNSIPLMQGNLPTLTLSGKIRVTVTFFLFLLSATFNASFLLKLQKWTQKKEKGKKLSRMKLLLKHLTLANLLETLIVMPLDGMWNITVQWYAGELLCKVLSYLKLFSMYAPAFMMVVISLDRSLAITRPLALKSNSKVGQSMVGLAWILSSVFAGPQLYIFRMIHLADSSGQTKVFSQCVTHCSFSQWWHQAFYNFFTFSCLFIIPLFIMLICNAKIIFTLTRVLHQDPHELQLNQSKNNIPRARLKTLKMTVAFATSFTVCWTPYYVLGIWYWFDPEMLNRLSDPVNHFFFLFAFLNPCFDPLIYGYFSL
Protocol: ^125I-Triptorelin [^125I-(D)-Trp6-GnRH] is ordered from the Biotrend Company (Cologne, Germany). The specific activity in each case is 2.13 Ci/mmol. All other chemicals are ordered from commercial sources at the highest available purity.
Transfixed LTK′ cells (ATCC No. CCL-11.3) are cultivated in DMEM medium (Invitrogen Life Technologies, Germany) with penicillin (100 I.U./ml), streptomycin (0.1 mg/ml) and glutamine (0.01 mol/l) and 10% fetal calf serum (FCS; Invitrogen Life Technologies, Germany) on plastic tissue culture plates (Nunc, Germany, 245×245×20 nun).
80% confluent cell culture plates are washed twice with 50 ml of phosphate-buffered salt solution (PBS) and dissolved below with 0.01 M EDTA solution. The cells are pelletized by centrifuging at 200×g for 5 minutes in a laboratory centrifuge (Kendro, Germany). The cell pellet is resuspended in 3 ml of binding medium (DMEM; 10 mmol of Hepes; 0.5% BSA; 0.1% NaN3; 1 g/l of bacitracin (freshly added, stock 100×); 0.1 g/l of SBTI (freshly added, stock 1000×), and the cell count is determined by means of trypan blue staining in a Neubauer counting chamber. The cell suspension is set with binding medium to a concentration of 5×10^5 Z/0.05 ml.
Binding tests for competition curves are performed as duplicates. The test substances are used as 10 mmol DMSO solutions. They are diluted with binding medium to 4× the final concentration used. 25 μl of the substance dilution is mixed with 25 μl of tracer solution (^125I-triptorelin). The concentration of tracer is set to about 50,000 cpm (measured in Cobra II, γ-counter, PE Liefe Science, Germany) in the final reaction volume of 100 μl.
200 μl of a silicone/paraffin oil mixture (84%:16%) is introduced into 650 μl pointed-bottom tubes (Roth, Germany). 50 μl of the cell suspension is pipetted thereto and subsequently 50 μl of the test substance/tracer mixture. The tubes are sealed and incubated for 60 minutes at 37° C. in an incubator that rotates via the top. After incubation, the samples are centrifuged in a centrifuge (Kendro, Germany) at 900 rpm and subsequently flash-frozen in liquid N2. The tip with the cell pellet is cut off and inserted into the prepared counting tube (Roth, Germany). The remainder of the pointed-bottom tube with the remaining supernatant is also inserted into a counting tube. The measurement is made in a γ-counter for 1 minute/sample.
The evaluation of the samples is carried out after calculating the specific bond in comparison to untreated cells, after the unspecific bond (excess unlabeled ligand, 1 mmol) is removed by means of GraphPad Prism (GraphPad Software Inc., USA).

GnRH receptor [2] = molecular target: T1, GnRH receptor; experiment: Functional reporter gene assay (luciferase) in LTK cells carrying GnRH receptors, triptorelin stimulation; assay type: cell-based; parameters: expressed in transfected cells; host or cells: LTK cells (ATCC No. CCL-1.3), stably transfected, with CRE / CMV minimal promoter luciferase reporter; conditions: inhibition of triptorelin/Rolipram-stimulated luciferase reporter
Protocol: Functional Reporter Gene Assay
For performing functional tests, stable, transfixed LTK cells carrying GnRH receptors (ATCC No. CCL-1.3) with a heterologous expression of cAMP responsible elements as well as a CMV minimal promoter-driven luciferase reporter gene are used.
The cells are cultivated in DMEM medium (Invitrogen Life Technologies, Germany) with penicillin (100 I.U./ml), streptomycin (0.1 mg/ml) and glutamine (0.01 mol/l) and 10% fetal calf serum (FCS; Invitrogen Life Technologies, Germany) on plastic tissue culture plates (Nunc, Germany, 245×245×20 mm).
80% confluent cell culture plates are washed twice with 50 ml of phosphate-buffered salt solution (PBS) and subsequently dissolved with trypsin EDTA solution (Invitrogen Life Technologies, Germany). The cells are pelletized by centrifuging at 200×g for 5 minutes in a laboratory centrifuge (Kendro, Germany). The cell pellet is resuspended in 3 ml of assay medium (Invitrogen Life Technologies, Germany) with penicillin (100 I.U./ml), streptomycin (0.1 mg/ml) and glutamine (0.01 mol/l) and 10% fetal calf serum (FCS; Invitrogen Life Technologies, Germany), and the cell count is determined by means of trypan blue staining in a Neubauer counting chamber. The cell suspension is set with assay medium to a concentration of 1×10^4 Z/100 μl. The cells are suspended on white 96-well microtiter plates (Costar, Germany) and incubated for 18 hours in an incubator.
To perform tests, test substances are diluted as 10 mmol DMSO solutions in assay medium to 6× the final concentration used. 25 μl of the test substance is added to 100 μl cells and incubated for 60 minutes at 37° C., 5% CO2. Then, the addition of triptorelin (D-Trp6-GnRH)/Rolipram solution (6 mmol/6 mmol) and a renewed incubation are carried out for 6 hours at 37° C., 5% CO2.
After incubation, the addition of 50 μl of lysis/detection buffer (LucLite, PE Life Science) and the measurement in a Lumistar luminometer (BMG Labtechnologies GmBH, Germany) are carried out.
The evaluation of the samples is carried out after calculating the inhibition in comparison to untreated stimulated cells, after removal of non-stimulated controls, by means of GraphPad Prism (GraphPad Software, Inc., USA) or alternately by means of OMMM (Accelrys, Germany) Software.

Compound	EC50 (GnRH receptor [1])	EC50 (GnRH receptor [2])
CC[C@H](C)[C@H](NC(=O)OCc1ccccc1)C(=O)N[C@]1(C(=O)N[C@H](C(N)=O)C(C)C)CCc2[nH]c3c(F)cc(F)cc3c2C1 [Compound 293, Phenylmethyl [(1S,2S)-1-[[[(3R)-3-[[[(1S)-1-(aminocarbonyl)-2-methylpropyl]amino]carbonyl]-6,8-difluoro-2,3,4,9-tetrahydro-1H-carbazol-3-yl]amino]car-bonyl]-2-methylbutyl]carbamate]	332 nM	762 nM
CC[C@H](C)[C@H](NC(=O)[C@@]1(NC(=O)[C@@H](NC(=O)OCc2ccccc2)[C@@H](C)CC)CCc2[nH]c3c(OC)cccc3c2C1)C(N)=O [Compound 294, Phenylmethyl [(1S,2S)-1-[[[(3R)-3-[[[(1S,2S)-1-(aminocarbonyl)-2-methylbutyl]amino]carbonyl]-8-methoxy-2,3,4,9-tetrahydro-1H-carbazol-3-yl]amino]car-bonyl]-2-methylbutyl]carbamate]	36 nM	89 nM
CC[C@H](C)[C@H](NC(=O)[C@@]1(NC(=O)[C@@H](NC(=O)OCc2ccccc2)[C@@H](C)CC)CCc2[nH]c3c(Cl)cc(Cl)cc3c2C1)C(N)=O [Compound 295, Phenylmethyl [(1S,2S)-1-[[[(3R)-3-[[[(1S,2S)-1-(aminocarbonyl)-2-methylbutyl]amino]carbonyl]-6,8-dichloro-2,3,4,9-tetrahydro-1H-carbazol-3-yl]amino]car-bonyl]-2-methylbutyl]carbamate]	18 nM	7 nM
CC[C@H](C)[C@H](NC(=O)OCc1ccccc1)C(=O)N[C@]1(C(=O)N[C@@H](CC(C)C)C(N)=O)CCc2[nH]c3c(Cl)cc(Cl)cc3c2C1 [Compound 296, Phenylmethyl [(1S,2S)-1-[[[(3R)-3-[[[(1S)-1-(aminocarbonyl)-3-methylbutyl]amino]carbonyl]-6,8-dichloro-2,3,4,9-tetrahydro-1H-carbazol-3-yl]amino]car-bonyl]-2-methylbutyl]carbamate]	22 nM	14 nM
CC[C@H](C)[C@H](NC(=O)OCc1ccccc1)C(=O)N[C@]1(C(=O)N[C@@H](CC2CCCCC2)C(N)=O)CCc2[nH]c3c(Cl)cc(Cl)cc3c2C1 [Compound 297, Phenylmethyl [(1S,2S)-1-[[[(3R)-3-[[[(1S)-1-(aminocarbonyl)-2-cyclohexylethyl]amino]carbonyl]-6,8-dichloro-2,3,4,9-tetrahydro-1H-carbazol-3-yl]amino]car-bonyl]-2-methylbutyl]carbamate]	482 nM	284 nM

More lines, now with the values ahead:

EC50 (GnRH receptor [1])	EC50 (GnRH receptor [2])	Compound
1310 nM	1500 nM	CC[C@H](C)[C@H](NC(=O)OCc1ccccc1)C(=O)N[C@]1(C(=O)N[C@@H](CCc2ccccc2)C(N)=O)CCc2[nH]c3c(Cl)cc(Cl)cc3c2C1 [Compound 299, Phenylmethyl [(1S,2S)-1-[[[(3R)-3-[[[(1S)-1-(aminocarbonyl)-3-phenylpropyl]amino]carbonyl]-6,8-dichloro-2,3,4,9-tetrahydro-1H-carbazol-3-yl]amino]car-bonyl]-2-methylbutyl]carbamate]
23 nM	17 nM	CCC(C)[C@H](NC(=O)[C@@]1(NC(=O)[C@H](CC2CCCCC2)NC(=O)OCc2ccccc2)CCc2[nH]c3c(Cl)cc(Cl)cc3c2C1)C(N)=O (stereo partly drawn) [Compound 300, Phenylmethyl [(1S,2S)-1-[[[(3R)-3-[[[(1S)-1(aminocarbonyl)-2-methylbutyl]amino]carbonyl]-6,8-dichloro-2,3,4,9-tetrahydro-1H-carbazol-3-yl]amino]car-bonyl]-2-cyclohexylmethyl]-carbamate]
538 nM	176 nM	CC[C@H](C)[C@H](NC(=O)[C@@]1(NC(=O)[C@@H](NC(=O)OCc2ccccc2)[C@@H](C)CC)CCc2[nH]c3c(Cl)cc(Cl)cc3c2C1)C(=O)O [Compound 301, Phenylmethyl [(1S,2S)-1-[[[(3R)-3-[[[(1S,2S)-1-(carboxy)-2-methylbutyl]amino]carbonyl]-6,8-dichloro-2,3,4,9-tetrahydro-1H-carbazol-3-yl]amino]car-bonyl]-2-methylbutyl]carbamate]
